Measurements from patent US11318178B2, “Lactobacillus reuteri ATG-F4 strain having function of enhancing dopamine secretion and pharmaceutical composition comprising same for prevention or treatment of psychopathy” (ATOGEN CO., LTD, priority 2018, dated 2022).

Key:
[1] = tested on: dopamine; assay: Serum dopamine ELISA after 4-week feeding of mice; type: in vivo, C57BL/6J mice; conditions: 4 weeks in drinking water (F4 about 10^7 CFU/ml; ampicillin 1 g/l); control 2.95 ng/ml
Description: (§1) Before all animal experiments, animal experimentation was approved and approval number ATG-IACUC-REV-180810 was granted through appropriate procedures by the Institutional Animal Care and Use Committee (IACUC) of AtoGEN, and a guide to ethical animal experiments was followed. 4-week-old C57BL/6J mice were purchased through Central Laboratory Animal (Seoul, Korea), and the experimental groups that were used were a control fed with general feed and drinking water (Ctrl), a gut microbiota dysbiosis experimental group (Amp) fed with general feed and drinking water containing 1 g/l of ampicillin, and an experimental group fed with general feed and drinking water containing about 10^7 CFU/ml of lactic-acid bacteria F4 (F4). Five mice were used for each experimental group. After stabilizing the 4-week-old mice for 1 week, the experiment was conducted for 4 weeks using the experimental groups described above. The entire experiment was independently repeated twice.
(§2) After the 4-week feeding experiment, the mice were anesthetized using ether, and blood was obtained from the heart thereof. […] The serum thus obtained was measured to determine the amounts of dopamine and serotonin in the blood using a dopamine ELISA kit (Abnova, Taiwan) and a serotonin ELISA kit (Abcam, USA).

[2] = tested on: serotonin; assay: Serum serotonin ELISA after 4-week feeding of mice; type: in vivo, C57BL/6J mice; conditions: 4 weeks in drinking water (F4 about 10^7 CFU/ml; ampicillin 1 g/l); control 3537.2 ng/ml
Description: as §1, §2

[3] = tested on: mouse macrophage cell line RAW264.7; assay: IL-10 ELISA of culture solution of RAW264.7 cells with or without LPS; type: cell-based; conditions: 1 μg/ml LPS alone (positive control), 24 hr
Description: In order to measure the anti-inflammatory effect of F4 lactic-acid bacteria, a cytokine quantification experiment using cells was performed. F4 lactic-acid bacteria as a treatment material were subjected to liquid culture in an MRS broth and were then centrifuged, after which the cells of the strain were recovered and concentrated 10-fold. The concentrated solution thus obtained was treated with lysozyme for 1 hr, lysed through sonication, and then quantified through solid content analysis. […] In order to confirm whether the generation of nitric oxide (NO) as an additional inflammation indicator was inhibited in the LPS-induced group, a predetermined amount of the cell culture supernatant obtained in the cell experiment for measuring cytokines was transferred into 96 wells, and 100 μl of a Griess reagent (modified, SIGMA, USA) was injected thereto, after which reaction was carried out at room temperature for 10 min and absorbance at 540 nm was measured using an ELISA reader. The amount of NO that was produced was calculated by comparing the proportion of NO present in the cell culture solution with the LPS-treated group as a control.

Compound | dopamine in serum [1] | serotonin in serum [2] | IL-10 production [3]
CC1(C)S[C@@H]2[C@H](NC(=O)[C@H](N)c3ccccc3)C(=O)N2[C@H]1C(=O)O [Amp, ampicillin] | 2.09 ng/mL | 2365.0 ng/mL | 
lipopolysaccharide [LPS] |  |  | 166.60 pg/mL
